Measured values: US8952024B2, “Herbicidal pyrimidone derivatives” (E I du Pont de Nemours and Company, priority 2009, dated 2015)

Tests used:
Assay in all cases: Test B pre-/postemergence plant response
Type in all cases: in vivo
[1] = test system: lambsquarters (Chenopodium album)
Outline: (§1)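 Visual injury, 0–100 scale (100 = complete control), rated against controls after 13 to 15 days in greenhouse. Pre-emergence: seeds in loam/sand soil, treated at planting. Post-emergence: 1- to 4-leaf plants (2 to 18 cm) in peat/vermiculite medium. Compounds formulated in non-phytotoxic solvent with surfactant.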

[2] = test system: goosegrass (Eleusine indica)
Outline: as §1

[3] = test system: large crabgrass (Digitaria sanguinalis)
Outline: as §1

[4] = test system: woolly cupgrass (Eriochloa villosa)
Outline: as §1

[5] = test system: velvetleaf (Abutilon theophrasti)
Outline: as §1

[6] = test system: downy bromegrass (Bromus tectorum)
Outline: as §1

[7] = test system: Italian ryegrass (Lolium multiflorum)
Outline: as §1

[8] = test system: wheat (Triticum aestivum)
Outline: as §1

[9] = test system: Surinam grass (Brachiaria decumbens)
Outline: as §1

[10] = test system: pigweed (Amaranthus retroflexus)
Outline: as §1

[11] = test system: ragweed (common ragweed, Ambrosia elatior)
Outline: as §1

[12] = test system: yellow nutsedge (Cyperus esculentus)
Outline: as §1

[13] = test system: green foxtail (Setaria viridis)
Outline: as §1

[14] = 31 g ai/ha, postemergence, scale 0 to 100, 0 is no effect, 100 is complete control
[15] = 250 g ai/ha, Preemergence, 0 to 100 scale
[16] = Postemergence, 62 g ai/ha, scale 0 (no effect) to 100 (complete control), 13 to 15 days
[17] = Postemergence, 125 g ai/ha, visual rating after 13 to 15 days, scale 0 (no effect) to 100 (complete control)
[18] = Postemergence, 250 g ai/ha, scale 0 to 100 (0 no effect, 100 complete control)
[19] = Preemergence, 31 g ai/ha, scale 0 to 100 (0 no effect, 100 complete control)
[20] = Preemergence, 62 g ai/ha, scale 0 to 100 (0 no effect, 100 complete control)
[21] = Preemergence, 125 g ai/ha, scale 0 to 100, 0 no effect, 100 complete control

## Cn1c(-c2ccccc2)ncc(C(=O)C2=C(O)CCCC2=O)c1=O [Compound 55]
[1]; [14]
  Plant response rating, Lambsquarters: 80
[1]; [15]
  Plant response rating, Lambsquarters: 100
[1]; [16]
  Plant response rating, Lambsquarters: 80
[1]; [17]
  Plant response rating, Lambsquarters: 95
[1]; [18]
  Plant response rating, Lambsquarters: 98
[1]; [19]
  Plant response rating, Lambsquarters: 95
[1]; [20]
  Plant response rating, Lambsquarters: 98
[1]; [21]
  Plant response rating, Lambsquarters: 98
[2]; [14]
  Plant response rating, Goosegrass: 45
[2]; [15]
  Plant response rating, Goosegrass: 98
[2]; [16]
  Plant response rating, Goosegrass: 60
[2]; [17]
  Plant response rating, Goosegrass: 65
[2]; [18]
  Plant response rating, Goosegrass: 75
[2]; [19]
  Plant response rating, Goosegrass: 45
[2]; [20]
  Plant response rating, Goosegrass: 95
[2]; [21]
  Plant response rating, Goosegrass: 98
[3]; [14]
  Plant response rating, Crabgrass, Large: 60
[3]; [15]
  Plant response rating, Crabgrass, Large: 98
[3]; [16]
  Plant response rating, Crabgrass, Large: 75
[3]; [17]
  Plant response rating, Crabgrass, Large: 80
[3]; [18]
  Plant response rating, Crabgrass, Large: 85
[3]; [19]
  Plant response rating, Crabgrass, Large: 10
[3]; [20]
  Plant response rating, Crabgrass, Large: 60
[3]; [21]
  Plant response rating, Crabgrass, Large: 95
[4]; [14]
  Plant response rating, Cupgrass, Woolly: 10
[4]; [15]
  Plant response rating, Cupgrass, Woolly: 55
[4]; [16]
  Plant response rating, Cupgrass, Woolly: 10
[4]; [17]
  Plant response rating, Cupgrass, Woolly: 15
[4]; [18]
  Plant response rating, Cupgrass, Woolly: 20
[4]; [19]
  Plant response rating, Cupgrass, Woolly: 0
[4]; [20]
  Plant response rating, Cupgrass, Woolly: 0
[4]; [21]
  Plant response rating, Cupgrass, Woolly: 0
[5]; [14]
  Plant response rating, Velvetleaf: 90
[5]; [16]
  Plant response rating, Velvetleaf: 98
[5]; [17]
  Plant response rating, Velvetleaf: 98
[5]; [18]
  Plant response rating, Velvetleaf: 100
[5]; [19]
  Plant response rating, Velvetleaf: 75
[5]; [20]
  Plant response rating, Velvetleaf: 98
[5]; [21]
  Plant response rating, Velvetleaf: 100
[6]; [14]
  Plant response rating, Bromegrass, Downy: 0
[6]; [15]
  Plant response rating, Bromegrass, Downy: 0
[6]; [16]
  Plant response rating, Bromegrass, Downy: 0
[6]; [17]
  Plant response rating, Bromegrass, Downy: 0
[6]; [18]
  Plant response rating, Bromegrass, Downy: 0
[6]; [19]
  Plant response rating, Bromegrass, Downy: 0
[6]; [20]
  Plant response rating, Bromegrass, Downy: 0
[6]; [21]
  Plant response rating, Bromegrass, Downy: 0
[7]; [14]
  Plant response rating, Ryegrass, Italian: 0
[7]; [16]
  Plant response rating, Ryegrass, Italian: 0
[7]; [17]
  Plant response rating, Ryegrass, Italian: 0
[7]; [18]
  Plant response rating, Ryegrass, Italian: 0
[7]; [19]
  Plant response rating, Ryegrass, Italian: 0
[7]; [20]
  Plant response rating, Ryegrass, Italian: 0
[7]; [21]
  Plant response rating, Ryegrass, Italian: 0
[8]; [14]
  Plant response rating, Wheat: 0
[8]; [16]
  Plant response rating, Wheat: 0
[8]; [17]
  Plant response rating, Wheat: 5
[8]; [18]
  Plant response rating, Wheat: 10
[8]; [19]
  Plant response rating, Wheat: 0
[8]; [20]
  Plant response rating, Wheat: 0
[8]; [21]
  Plant response rating, Wheat: 0
[9]; [14]
  Plant response rating, Surinam Grass: 10
[9]; [16]
  Plant response rating, Surinam Grass: 15
[9]; [17]
  Plant response rating, Surinam Grass: 45
[9]; [18]
  Plant response rating, Surinam Grass: 60
[9]; [19]
  Plant response rating, Surinam Grass: 0
[9]; [20]
  Plant response rating, Surinam Grass: 0
[9]; [21]
  Plant response rating, Surinam Grass: 0
[10]; [14]
  Plant response rating, Pigweed: 80
[10]; [16]
  Plant response rating, Pigweed: 85
[10]; [17]
  Plant response rating, Pigweed: 90
[10]; [18]
  Plant response rating, Pigweed: 95
[10]; [19]
  Plant response rating, Pigweed: 45
[10]; [20]
  Plant response rating, Pigweed: 95
[10]; [21]
  Plant response rating, Pigweed: 98
[11]; [14]
  Plant response rating, Ragweed: 70
[11]; [16]
  Plant response rating, Ragweed: 80
[11]; [17]
  Plant response rating, Ragweed: 95
[11]; [18]
  Plant response rating, Ragweed: 98
[11]; [19]
  Plant response rating, Ragweed: 55
[11]; [20]
  Plant response rating, Ragweed: 65
[11]; [21]
  Plant response rating, Ragweed: 85
[12]; [14]
  Plant response rating, Nutsedge, Yellow: 10
[12]; [16]
  Plant response rating, Nutsedge, Yellow: 10
[12]; [17]
  Plant response rating, Nutsedge, Yellow: 55
[12]; [18]
  Plant response rating, Nutsedge, Yellow: 65
[12]; [19]
  Plant response rating, Nutsedge, Yellow: 0
[12]; [20]
  Plant response rating, Nutsedge, Yellow: 45
[12]; [21]
  Plant response rating, Nutsedge, Yellow: 45
[13]; [14]
  Plant response rating, Foxtail, Green: 30
[13]; [15]
  Plant response rating, Foxtail, Green: 0
[13]; [16]
  Plant response rating, Foxtail, Green: 40
[13]; [17]
  Plant response rating, Foxtail, Green: 80
[13]; [18]
  Plant response rating, Foxtail, Green: 80
[13]; [19]
  Plant response rating, Foxtail, Green: 0
[13]; [20]
  Plant response rating, Foxtail, Green: 0
[13]; [21]
  Plant response rating, Foxtail, Green: 0
